Reference: patent US12077503B2, “Substituted cyclic amides and their use as herbicides” (FMC CORPORATION, priority 2015, dated 2024)

Assays:
Assay type in all cases: in vivo
[1] = system: ivy-leaved morning glory (Ipomoea hederacea); assay: Test G Pre-Emergence Protocol; conditions: Ipomoea, pre-emergence, 312 h, evaluated after 13 days; for pest or weed control at 15.625 g/ha: 15.625 g ai/ha, read-out: Morning-glory, Ivy-leaved damage rating (100=total damage to plant; 0=no damage to plant); for pest or weed control at 62.5 g/ha: 62.5 g ai/ha, 100=total damage to plant, 0=no damage to plant, read-out: plant damage rating, Morningglory, Ivy-leaved; for pest or weed control at 250 g/ha: 250 g ai/ha, read-out: Morningglory, Ivy-leaved damage rating (100=total damage to plant; 0=no damage to plant)
Outline: (§1)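 Glasshouse pre-emergence test: soil-sown seeds, sprayed after 1 d at 15.625, 62.5 or 250 g/ha. Conditions 24/16° C day/night, 14 h light, 65% humidity, watering twice daily. Rating 13 d post-spray (100 = total damage).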

[2] = system: redroot pigweed (Amaranthus retroflexus); assay: Test G Pre-Emergence Protocol; conditions: Amaranthus retroflexus, pre-emergence, 312 h, evaluated after 13 days; for pest or weed control at 15.625 g/ha: 15.625 g ai/ha; for pest or weed control at 15.625 g/ha / pest or weed control at 250 g/ha: read-out: Pigweed, Redroot damage rating (100=total damage to plant; 0=no damage to plant); for pest or weed control at 62.5 g/ha: 62.5 g ai/ha, 100=total damage to plant, 0=no damage to plant, read-out: plant damage rating, Pigweed, Redroot; for pest or weed control at 250 g/ha: 250 g ai/ha
Outline: as §1

[3] = system: giant foxtail (Setaria faberi); assay: Test G Pre-Emergence Protocol; conditions: Setaria faberi, pre-emergence, 312 h, evaluated after 13 days; for pest or weed control at 15.625 g/ha: 15.625 g ai/ha; for pest or weed control at 15.625 g/ha / pest or weed control at 250 g/ha: read-out: Foxtail, Giant damage rating (100=total damage to plant; 0=no damage to plant); for pest or weed control at 62.5 g/ha: 62.5 g ai/ha, 100=total damage to plant, 0=no damage to plant, read-out: plant damage rating, Foxtail, Giant; for pest or weed control at 250 g/ha: 250 g ai/ha
Outline: as §1

[4] = system: barnyardgrass (Echinochloa crus-galli); assay: Test G Pre-Emergence Protocol; conditions: Echinochloa crus-galli, pre-emergence, 312 h, evaluated after 13 days; for pest or weed control at 15.625 g/ha: 15.625 g ai/ha, read-out: Barnyard grass damage rating (100=total damage to plant; 0=no damage to plant); for pest or weed control at 62.5 g/ha: 62.5 g ai/ha, 100=total damage to plant, 0=no damage to plant, read-out: plant damage rating, Barnyardgrass; for pest or weed control at 250 g/ha: 250 g ai/ha, read-out: Barnyardgrass damage rating (100=total damage to plant; 0=no damage to plant)
Outline: as §1

[5] = system: velvetleaf (Abutilon theophrasti); assay: Test G Pre-Emergence Protocol; conditions: Abutilon theophrasti, pre-emergence, 312 h, evaluated after 13 days; for pest or weed control at 15.625 g/ha: 15.625 g ai/ha; for pest or weed control at 15.625 g/ha / pest or weed control at 250 g/ha: read-out: Velvetleaf damage rating (100=total damage to plant; 0=no damage to plant); for pest or weed control at 62.5 g/ha: 62.5 g ai/ha, 100=total damage to plant, 0=no damage to plant, read-out: plant damage rating, Velvetleaf; for pest or weed control at 250 g/ha: 250 g ai/ha
Outline: as §1

[6] = system: corn (Zea mays); assay: Test G Pre-Emergence Protocol; conditions: Zea mays, pre-emergence, 312 h, evaluated after 13 days; for plant injury at 15.625 g/ha: 15.625 g ai/ha; for plant injury at 15.625 g/ha / plant injury at 250 g/ha: read-out: Corn damage rating (100=total damage to plant; 0=no damage to plant); for plant injury at 62.5 g/ha: 62.5 g ai/ha, 100=total damage to plant, 0=no damage to plant, read-out: plant damage rating, Corn; for plant injury at 250 g/ha: 250 g ai/ha
Outline: as §1

[7] = system: ivy-leaved morning glory (Ipomoea hederacea); assay: Test G Post-Emergence Protocol; conditions: Ipomoea, post-emergence, 312 h; for pest or weed control at 15.625 g/ha: 15.625 g ai/ha, evaluated after 13 days (100=total damage to plant; 0=no damage to plant), read-out: Morningglory, Ivy-leaved damage rating; for pest or weed control at 62.5 g/ha: 62.5 g ai/ha, read-out: Morningglory, Ivy-leaved damage rating (100=total damage to plant; 0=no damage to plant); for pest or weed control at 62.5 g/ha / pest or weed control at 250 g/ha: evaluated after 13 days; for pest or weed control at 250 g/ha: 250 g ai/ha, read-out: damage to plant, Morningglory, Ivy-leaved (100=total damage to plant; 0=no damage to plant)
Outline: (§2)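 Values are percent visual injury at 13 days after treatment (0 none, 100 total). Treatment was a post-emergence spray at 15.625, 62.5 or 250 g/ha on 8-day-old pot plants kept at 24/16 °C.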

[8] = system: redroot pigweed (Amaranthus retroflexus); assay: Test G Post-Emergence Protocol; conditions: Amaranthus retroflexus, post-emergence, 312 h; for pest or weed control at 15.625 g/ha: 15.625 g ai/ha, evaluated after 13 days (100=total damage to plant; 0=no damage to plant), read-out: Pigweed, Redroot damage rating; for pest or weed control at 62.5 g/ha: 62.5 g ai/ha, read-out: Pigweed, Redroot damage rating (100=total damage to plant; 0=no damage to plant); for pest or weed control at 62.5 g/ha / pest or weed control at 250 g/ha: evaluated after 13 days; for pest or weed control at 250 g/ha: 250 g ai/ha, read-out: damage to plant, Pigweed, Redroot (100=total damage to plant; 0=no damage to plant)
Outline: as §2

[9] = system: giant foxtail (Setaria faberi); assay: Test G Post-Emergence Protocol; conditions: Setaria faberi, post-emergence, 312 h; for pest or weed control at 15.625 g/ha: 15.625 g ai/ha, evaluated after 13 days (100=total damage to plant; 0=no damage to plant), read-out: Foxtail, Giant damage rating; for pest or weed control at 62.5 g/ha: 62.5 g ai/ha, read-out: Foxtail, Giant damage rating (100=total damage to plant; 0=no damage to plant); for pest or weed control at 62.5 g/ha / pest or weed control at 250 g/ha: evaluated after 13 days; for pest or weed control at 250 g/ha: 250 g ai/ha, read-out: damage to plant, Foxtail, Giant (100=total damage to plant; 0=no damage to plant)
Outline: as §2

[10] = system: barnyardgrass (Echinochloa crus-galli); assay: Test G Post-Emergence Protocol; conditions: Echinochloa crus-galli, post-emergence, 312 h; for pest or weed control at 15.625 g/ha: 15.625 g ai/ha, evaluated after 13 days (100=total damage to plant; 0=no damage to plant), read-out: Barnyardgrass damage rating; for pest or weed control at 62.5 g/ha: 62.5 g ai/ha, read-out: Barnyardgrass damage rating (100=total damage to plant; 0=no damage to plant); for pest or weed control at 62.5 g/ha / pest or weed control at 250 g/ha: evaluated after 13 days; for pest or weed control at 250 g/ha: 250 g ai/ha, read-out: damage to plant, Barnyardgrass (100=total damage to plant; 0=no damage to plant)
Outline: as §2

[11] = system: velvetleaf (Abutilon theophrasti); assay: Test G Post-Emergence Protocol; conditions: Abutilon theophrasti, post-emergence, 312 h; for pest or weed control at 15.625 g/ha: 15.625 g ai/ha, evaluated after 13 days (100=total damage to plant; 0=no damage to plant), read-out: Velvetleaf damage rating; for pest or weed control at 62.5 g/ha: 62.5 g ai/ha, read-out: Velvetleaf damage rating (100=total damage to plant; 0=no damage to plant); for pest or weed control at 62.5 g/ha / pest or weed control at 250 g/ha: evaluated after 13 days; for pest or weed control at 250 g/ha: 250 g ai/ha, read-out: damage to plant, Velvetleaf (100=total damage to plant; 0=no damage to plant)
Outline: as §2

[12] = system: corn (Zea mays); assay: Test G Post-Emergence Protocol; conditions: Zea mays, post-emergence, 312 h; for plant injury at 15.625 g/ha: 15.625 g ai/ha, evaluated after 13 days (100=total damage to plant; 0=no damage to plant), read-out: Corn damage rating; for plant injury at 62.5 g/ha: 62.5 g ai/ha, read-out: Corn damage rating (100=total damage to plant; 0=no damage to plant); for plant injury at 62.5 g/ha / plant injury at 250 g/ha: evaluated after 13 days; for plant injury at 250 g/ha: 250 g ai/ha, read-out: damage to plant, Corn (100=total damage to plant; 0=no damage to plant)
Outline: as §2

Row | SMILES | pest or weed control at 15.625 g/ha [1] [%] | pest or weed control at 62.5 g/ha [1] [%] | pest or weed control at 250 g/ha [1] [%] | pest or weed control at 15.625 g/ha [2] [%] | pest or weed control at 62.5 g/ha [2] [%] | pest or weed control at 250 g/ha [2] [%] | pest or weed control at 15.625 g/ha [3] [%] | pest or weed control at 62.5 g/ha [3] [%] | pest or weed control at 250 g/ha [3] [%] | pest or weed control at 15.625 g/ha [4] [%] | pest or weed control at 62.5 g/ha [4] [%] | pest or weed control at 250 g/ha [4] [%] | pest or weed control at 15.625 g/ha [5] [%] | pest or weed control at 62.5 g/ha [5] [%] | pest or weed control at 250 g/ha [5] [%] | plant injury at 15.625 g/ha [6] [%] | plant injury at 62.5 g/ha [6] [%] | plant injury at 250 g/ha [6] [%] | pest or weed control at 15.625 g/ha [7] [%] | pest or weed control at 62.5 g/ha [7] [%] | further results
1 | CC(C)c1cc([C@H]2CN(C)C(=O)[C@@H]2C(=O)Nc2cccc(F)c2F)cnn1 (racemic) [Compound 1488] | 0 | 0 | 0 | 0 | 0 | 0 | 0 | 0 | 0 | 0 | 0 | 0 | 0 | 0 | 0 | 0 | 0 | 0 | 0 | 0 | pest or weed control at 250 g/ha [7]: 0%; pest or weed control at 15.625 g/ha [8]: 0%; pest or weed control at 62.5 g/ha [8]: 0%; pest or weed control at 250 g/ha [8]: 0%; pest or weed control at 15.625 g/ha [9]: 0%; pest or weed control at 62.5 g/ha [9]: 0%; pest or weed control at 250 g/ha [9]: 30%; pest or weed control at 15.625 g/ha [10]: 0%; pest or weed control at 62.5 g/ha [10]: 20%; pest or weed control at 250 g/ha [10]: 20%; pest or weed control at 15.625 g/ha [11]: 0%; pest or weed control at 62.5 g/ha [11]: 0%; pest or weed control at 250 g/ha [11]: 0%; plant injury at 15.625 g/ha [12]: 0%; plant injury at 62.5 g/ha [12]: 10%; plant injury at 250 g/ha [12]: 0%
2 | Cc1ccc(NC(=O)[C@@H]2C(=O)N(C)C[C@H]2c2ccc(C(F)(F)F)cc2)nn1 (racemic) [Compound 1543] | 0 | 0 | 0 | 0 | 0 | 0 | 0 | 0 | 0 | 0 | 0 | 0 | 0 | 0 | 0 | 0 | 0 | 0 | 0 | 0 | pest or weed control at 250 g/ha [7]: 30%; pest or weed control at 15.625 g/ha [8]: 0%; pest or weed control at 62.5 g/ha [8]: 0%; pest or weed control at 250 g/ha [8]: 40%; pest or weed control at 15.625 g/ha [9]: 0%; pest or weed control at 62.5 g/ha [9]: 0%; pest or weed control at 250 g/ha [9]: 20%; pest or weed control at 15.625 g/ha [10]: 0%; pest or weed control at 62.5 g/ha [10]: 0%; pest or weed control at 250 g/ha [10]: 0%; pest or weed control at 15.625 g/ha [11]: 0%; pest or weed control at 62.5 g/ha [11]: 0%; pest or weed control at 250 g/ha [11]: 30%; plant injury at 15.625 g/ha [12]: 0%; plant injury at 62.5 g/ha [12]: 0%; plant injury at 250 g/ha [12]: 10%
3 | CN1C[C@@H](c2ccc(C(F)(F)F)cc2)[C@H](C(=O)Nc2ccnc(Cl)n2)C1=O (racemic) [Compound 1544] | 0 | 0 | 0 | 0 | 0 | 0 | 0 | 0 | 0 | 0 | 0 | 0 | 0 | 0 | 0 | 0 | 0 | 0 | 0 | 0 | pest or weed control at 250 g/ha [7]: 0%; pest or weed control at 15.625 g/ha [8]: 0%; pest or weed control at 62.5 g/ha [8]: 0%; pest or weed control at 250 g/ha [8]: 0%; pest or weed control at 15.625 g/ha [9]: 0%; pest or weed control at 62.5 g/ha [9]: 0%; pest or weed control at 250 g/ha [9]: 0%; pest or weed control at 15.625 g/ha [10]: 0%; pest or weed control at 62.5 g/ha [10]: 0%; pest or weed control at 250 g/ha [10]: 0%; pest or weed control at 15.625 g/ha [11]: 0%; pest or weed control at 62.5 g/ha [11]: 0%; pest or weed control at 250 g/ha [11]: 0%; plant injury at 15.625 g/ha [12]: 10%; plant injury at 62.5 g/ha [12]: 10%; plant injury at 250 g/ha [12]: 10%
